Patent US4593093A, “Acyl derivatives” (priority 1980, dated 1986)
Counter-ions that a name gives are not always drawn. Like-named read-outs stand apart in the source and are kept apart here.

Legend:
Proteus mirabilis = test: Activity in vitro: minimum inhibitory concentration; type: cell-based
Pseudomonas aeruginosa [1] = test: Activity in vivo: survival of intraperitoneally infected mice; conditions: sc, 96 h; mice infected i.p. with Pseudomonas aeruginosa; s.c. three times, 1 h, 3 h and 5 h after infection; survival on 4th day; read-out: CD50 (dosage at which 50% of the animals survive)
Description: (§1) Groups of 5 mice are infected intraperitoneally with an aqueous suspension of various pathogens. The test substance in physiological sodium chloride solution is administered subcutaneously twice, i.e. 1 hour and 3 hours after the infection. The number of surviving animals is determined on the 4th day. Various dosages are administered and that dosage at which 50% of the experimental animals survive (CD50, mg/kg) is determined by interpolation.
*Administered subcutaneously three times: 1 hour, 3 hours and 5 hours

Escherichia coli [2] = test: Activity in vitro: minimum inhibitory concentration; type: cell-based
Streptococcus viridans = test: as above; type: cell-based
Serratia marcescens [3] = test: as above; type: cell-based
Pseudomonas aeruginosa [4] = test: as above; type: cell-based
Enterobacter cloacae [5] = test: as above; type: cell-based
Streptococcus faecalis = test: as above; type: cell-based; conditions: Enterococcus faecalis
Streptococcus pyogenes [6] = test: as above; type: cell-based
Streptococcus pneumoniae = test: as above; type: cell-based
Proteus inconstans = test: as above; type: cell-based; conditions: Providencia alcalifaciens
Enterobacter aerogenes = test: as above; type: cell-based; conditions: Klebsiella aerogenes
Staphylococcus aureus = test: as above; type: cell-based
Staphylococcus epidermis = test: as above; type: cell-based
Klebsiella pseumoniae = test: as above; type: cell-based
Proteus morganii = test: as above; type: cell-based; conditions: Morganella morganii
Proteus rettgeri = test: as above; type: cell-based; conditions: Providencia rettgeri
Streptococcus pyogenes [7] = test: Activity in vivo: survival of intraperitoneally infected mice; conditions: sc, 96 h; mice infected i.p. with Streptococcus pyogenes; s.c. twice, 1 h and 3 h after infection; survival on 4th day; read-out: CD50 (dosage at which 50% of the animals survive)
Description: as §1

Escherichia coli [8] = test: as above; conditions: sc, 96 h; mice infected i.p. with Escherichia coli; s.c. twice, 1 h and 3 h after infection; survival on 4th day; read-out: CD50 (dosage at which 50% of the animals survive)
Description: as §1

Enterobacter cloacae [9] = test: as above; conditions: sc, 96 h; mice infected i.p. with Enterobacter cloacae; s.c. twice, 1 h and 3 h after infection; survival on 4th day; read-out: CD50 (dosage at which 50% of the animals survive)
Description: as §1

Serratia marcescens [10] = test: as above; conditions: sc, 96 h, 1 h and 3 h after infection, survival on 4th day, read-out: CD50 (dosage at which 50% of the animals survive)
Description: as §1

Citrobacter freundii = test: Activity in vitro: minimum inhibitory concentration; type: cell-based
Toxicity, LD50 = conditions: in vivo
Haemophilus influenzae = test: Activity in vivo: survival of intraperitoneally infected mice; conditions: sc, 96 h; mice infected i.p. with Haemophilus influenzae; s.c. twice, 1 h and 3 h after infection; survival on 4th day; read-out: CD50 (dosage at which 50% of the animals survive)
Description: as §1

[11] = Pseudomonas aeruginosa strain 3
[12] = Streptococcus faecalis strain 1
[13] = Streptococcus faecalis strain 2
[14] = Streptococcus pyogenes strain 1, read-out: Minimum inhibitory concentration
[15] = Streptococcus pyogenes strain 2, read-out: Minimum inhibitory concentration
[16] = Enterobacter aerogenes strain 1
[17] = Enterobacter aerogenes strain 2
[18] = mice infected i.p. with Serratia marcescens strain 1, s.c. twice
[19] = Pseudomonas aeruginosa strain 1

SMILES: CC(=O)OCC1=C(C(=O)O)N2C(=O)[C@@H](NC(=O)/C(=N\OC(C)(C)C(=O)O)c3c[se]c(N)n3)[C@H]2SC1 [Product I, disodium salt]
- MIC (Proteus mirabilis; Proteus mirabilis strain 3): 0.1 µg/mL
- MIC (Proteus mirabilis; Proteus mirabilis strain 4): 0.1 µg/mL
- MIC (Proteus mirabilis; Proteus mirabilis strain 5): 0.2 µg/mL
- ED50 (Pseudomonas aeruginosa [1]): 23 mg/kg
- MIC (Escherichia coli [2]; Escherichia coli strain 1): 1.6 µg/mL
- MIC (Escherichia coli [2]; Escherichia coli strain 2): 0.2 µg/mL
- MIC (Escherichia coli [2]; Escherichia coli strain 3): 0.8 µg/mL
- MIC (Escherichia coli [2]; Escherichia coli strain 5): 0.4 µg/mL
- MIC (Streptococcus viridans): 6.3 µg/mL
- MIC (Serratia marcescens [3]; Serratia marcescens strain 1): 1.6 µg/mL
- MIC (Serratia marcescens [3]; Serratia marcescens strain 2): 3.1 µg/mL
- MIC (Serratia marcescens [3]; Serratia marcescens strain 3): 0.4 µg/mL
- MIC (Pseudomonas aeruginosa [4]; [11]): 1.6 µg/mL
- MIC (Enterobacter cloacae [5]; Enterobacter cloacae strain 1): > 100 µg/mL
- MIC (Enterobacter cloacae [5]; Enterobacter cloacae strain 2): 6.3 µg/mL
- MIC (Enterobacter cloacae [5]; Enterobacter cloacae strain 3): > 100 µg/mL
- MIC (Streptococcus faecalis; [12]): > 100 µg/mL
- MIC (Streptococcus faecalis; [13]): > 100 µg/mL
- MIC (Streptococcus pyogenes [6]; [14]): 0.2 µg/mL
- MIC (Streptococcus pyogenes [6]; [15]): 0.05 µg/mL
- MIC (Streptococcus pneumoniae): 0.2 µg/mL
- MIC (Proteus inconstans): 0.012 µg/mL
- MIC (Enterobacter aerogenes; [16]): 0.4 µg/mL
- MIC (Enterobacter aerogenes; [17]): 0.2 µg/mL
- MIC (Staphylococcus aureus; Staphylococcus aureus strain 1): 50 µg/mL
- MIC (Staphylococcus aureus; Staphylococcus aureus strain 2): 100 µg/mL
- MIC (Staphylococcus aureus; Staphylococcus aureus strain 3): 50 µg/mL
- MIC (Staphylococcus aureus; Staphylococcus aureus strain 4): 100 µg/mL
- MIC (Staphylococcus epidermis): 50 µg/mL
- MIC (Klebsiella pseumoniae; Klebsiella pseumoniae strain 1): 0.8 µg/mL
- MIC (Klebsiella pseumoniae; Klebsiella pseumoniae strain 2): 0.4 µg/mL
- MIC (Klebsiella pseumoniae; Klebsiella pseumoniae strain 3): 0.8 µg/mL
- MIC (Proteus morganii): 0.8 µg/mL
- MIC (Proteus rettgeri): 0.1 µg/mL
- ED50 (Streptococcus pyogenes [7]): 2.7 mg/kg
- ED50 (Escherichia coli [8]): 0.067 mg/kg
- ED50 (Enterobacter cloacae [9]): > 50 mg/kg
- ED50 (Serratia marcescens [10]; [18]): 1.8 mg/kg
- MIC (Citrobacter freundii; Citrobacter freundii strain 1): 100 µg/mL
- MIC (Citrobacter freundii; Citrobacter freundii strain 2): 1.6 µg/mL

SMILES: CO/N=C(\C(=O)N[C@@H]1C(=O)N2C(C(=O)O)=C(C)CS[C@H]12)c1c[se]c(N)n1 [Product F, (6R, 7R)-7-[2-(2-amino-4-selenazolyl)-2-[(Z)-methoxyimino]-acetamido]-3-methyl-3-oxo-5-thia-1-azabicyclo[4.2.0]oct-2-ene-2-carboxylic acid sodium salt]
- LD50 (Toxicity, LD50; po): > 5000 mg/kg
- LD50 (Toxicity, LD50; sc): > 4000 mg/kg
- MIC (Proteus mirabilis; Proteus mirabilis strain 3): 0.1 µg/mL
- MIC (Proteus mirabilis; Proteus mirabilis strain 4): 0.8 µg/mL
- MIC (Proteus mirabilis; Proteus mirabilis strain 5): 0.4 µg/mL
- ED50 (Pseudomonas aeruginosa [1]): > 200 mg/kg
- MIC (Escherichia coli [2]; Escherichia coli strain 1): 0.8 µg/mL
- MIC (Escherichia coli [2]; Escherichia coli strain 2): 0.05 µg/mL
- MIC (Escherichia coli [2]; Escherichia coli strain 3): 12.5 µg/mL
- MIC (Escherichia coli [2]; Escherichia coli strain 4): 100 µg/mL
- MIC (Escherichia coli [2]; Escherichia coli strain 5): 3.1 µg/mL
- MIC (Streptococcus viridans): 12.5 µg/mL
- MIC (Serratia marcescens [3]; Serratia marcescens strain 1): 3.1 µg/mL
- MIC (Serratia marcescens [3]; Serratia marcescens strain 2): 6.3 µg/mL
- MIC (Serratia marcescens [3]; Serratia marcescens strain 3): 0.4 µg/mL
- MIC (Pseudomonas aeruginosa [4]; [19]): > 200 µg/mL
- MIC (Pseudomonas aeruginosa [4]; Pseudomonas aeruginosa strain 2): > 200 µg/mL
- MIC (Pseudomonas aeruginosa [4]; [11]): 200 µg/mL
- MIC (Enterobacter cloacae [5]; Enterobacter cloacae strain 1): > 200 µg/mL
- MIC (Enterobacter cloacae [5]; Enterobacter cloacae strain 2): 25 µg/mL
- MIC (Enterobacter cloacae [5]; Enterobacter cloacae strain 3): > 200 µg/mL
- MIC (Streptococcus faecalis; [12]): > 200 µg/mL
- MIC (Streptococcus faecalis; [13]): > 200 µg/mL
- MIC (Streptococcus pyogenes [6]; [14]): 3.1 µg/mL
- MIC (Streptococcus pyogenes [6]; [15]): 0.05 µg/mL
- MIC (Streptococcus pneumoniae): 12.5 µg/mL
- MIC (Proteus inconstans): ≤ 0.025 µg/mL
- MIC (Enterobacter aerogenes; [16]): 0.2 µg/mL
- MIC (Enterobacter aerogenes; [17]): 0.2 µg/mL
- MIC (Staphylococcus aureus; Staphylococcus aureus strain 1): 50 µg/mL
- MIC (Staphylococcus aureus; Staphylococcus aureus strain 2): 100 µg/mL
- MIC (Staphylococcus aureus; Staphylococcus aureus strain 3): 50 µg/mL
- MIC (Staphylococcus aureus; Staphylococcus aureus strain 4): 100 µg/mL
- MIC (Staphylococcus epidermis): 100 µg/mL
- MIC (Klebsiella pseumoniae; Klebsiella pseumoniae strain 1): 0.2 µg/mL
- MIC (Klebsiella pseumoniae; Klebsiella pseumoniae strain 2): 0.05 µg/mL
- MIC (Klebsiella pseumoniae; Klebsiella pseumoniae strain 3): 0.05 µg/mL
- MIC (Proteus morganii): 50 µg/mL
- MIC (Proteus rettgeri): 0.1 µg/mL
- ED50 (Streptococcus pyogenes [7]): < 0.05 mg/kg
- ED50 (Haemophilus influenzae): 4 mg/kg
- ED50 (Escherichia coli [8]): 0.06 mg/kg
- ED50 (Enterobacter cloacae [9]): > 25 mg/kg
- ED50 (Serratia marcescens [10]; [18]): 0.59 mg/kg
- ED50 (Serratia marcescens [10]; mice infected i.p. with Serratia marcescens strain 2, s.c. twice): 5.1 mg/kg
- MIC (Citrobacter freundii; Citrobacter freundii strain 1): 200 µg/mL
- MIC (Citrobacter freundii; Citrobacter freundii strain 2): 1.6 µg/mL

SMILES: CC(=O)OCC1=C(C(=O)[O-])N2C(=O)[C@@H](NC(=O)/C(=N\O)c3c[se]c(N)n3)[C@H]2SC1.[Na+] [Product L, (6R, 7R)-3-(acetoxymethyl)-7-[2-(2-amino-4-selenazolyl)-2-[(Z)-hydroxyimino]-acetamido]-8-oxo-5-thia-1-azabicyclo[4.2.0]oct-2-ene-2-carboxylic acid sodium salt]
- MIC (Proteus mirabilis; Proteus mirabilis strain 3): ≤ 0.025 µg/mL
- MIC (Proteus mirabilis; Proteus mirabilis strain 4): 0.05 µg/mL
- MIC (Proteus mirabilis; Proteus mirabilis strain 5): 0.05 µg/mL
- MIC (Escherichia coli [2]; Escherichia coli strain 1): ≤ 0.025 µg/mL
- MIC (Escherichia coli [2]; Escherichia coli strain 2): ≤ 0.025 µg/mL
- MIC (Escherichia coli [2]; Escherichia coli strain 3): 1.6 µg/mL
- MIC (Escherichia coli [2]; Escherichia coli strain 4): 6.3 µg/mL
- MIC (Escherichia coli [2]; Escherichia coli strain 5): 0.1 µg/mL
- MIC (Streptococcus viridans): 0.8 µg/mL
- MIC (Serratia marcescens [3]; Serratia marcescens strain 1): 0.8 µg/mL
- MIC (Serratia marcescens [3]; Serratia marcescens strain 2): 1.6 µg/mL
- MIC (Serratia marcescens [3]; Serratia marcescens strain 3): 0.1 µg/mL
- MIC (Pseudomonas aeruginosa [4]; [19]): 50 µg/mL
- MIC (Pseudomonas aeruginosa [4]; [11]): 12.5 µg/mL
- MIC (Enterobacter cloacae [5]; Enterobacter cloacae strain 1): 200 µg/mL
- MIC (Enterobacter cloacae [5]; Enterobacter cloacae strain 2): 6.3 µg/mL
- MIC (Enterobacter cloacae [5]; Enterobacter cloacae strain 3): 25 µg/mL
- MIC (Streptococcus faecalis; [12]): 25 µg/mL
- MIC (Streptococcus faecalis; [13]): 25 µg/mL
- MIC (Streptococcus pyogenes [6]; [14]): 0.05 µg/mL
- MIC (Streptococcus pyogenes [6]; read-out: Minimum inhibitory concentration, Streptococcus pyogenes strain 2): ≥ 0.025 µg/mL
- MIC (Streptococcus pneumoniae): 0.1 µg/mL
- MIC (Proteus inconstans): ≤ 0.025 µg/mL
- MIC (Enterobacter aerogenes; [16]): ≤ 0.025 µg/mL
- MIC (Enterobacter aerogenes; [17]): 0.4 µg/mL
- MIC (Staphylococcus aureus; Staphylococcus aureus strain 1): 0.2 µg/mL
- MIC (Staphylococcus aureus; Staphylococcus aureus strain 2): 0.4 µg/mL
- MIC (Staphylococcus aureus; Staphylococcus aureus strain 3): 0.4 µg/mL
- MIC (Staphylococcus aureus; Staphylococcus aureus strain 4): 0.4 µg/mL
- MIC (Staphylococcus epidermis): 0.4 µg/mL
- MIC (Klebsiella pseumoniae; Klebsiella pseumoniae strain 1): ≤ 0.025 µg/mL
- MIC (Klebsiella pseumoniae; Klebsiella pseumoniae strain 2): ≤ 0.025 µg/mL
- MIC (Klebsiella pseumoniae; Klebsiella pseumoniae strain 3): ≤ 0.025 µg/mL
- MIC (Proteus morganii): 0.4 µg/mL
- ED50 (Streptococcus pyogenes [7]): 0.08 mg/kg
- MIC (Citrobacter freundii; Citrobacter freundii strain 1): 3.1 µg/mL
- MIC (Citrobacter freundii; Citrobacter freundii strain 2): 0.025 µg/mL
